Laboratory results taken from US10864211B2, “Hydroxy isoxazole compounds useful as GPR120 agonists” (Merck Sharp & Dohme Corp., priority 2016, dated 2020).
Counter-ions that a name gives are not always drawn.

Molecular target: T1, human GPR120 (Homo sapiens, UniProt Q5NUL3)
T1 construct: expressed in transfected cells; host or cells: CHO-K1
T1 sequence (Q5NUL3 1-361): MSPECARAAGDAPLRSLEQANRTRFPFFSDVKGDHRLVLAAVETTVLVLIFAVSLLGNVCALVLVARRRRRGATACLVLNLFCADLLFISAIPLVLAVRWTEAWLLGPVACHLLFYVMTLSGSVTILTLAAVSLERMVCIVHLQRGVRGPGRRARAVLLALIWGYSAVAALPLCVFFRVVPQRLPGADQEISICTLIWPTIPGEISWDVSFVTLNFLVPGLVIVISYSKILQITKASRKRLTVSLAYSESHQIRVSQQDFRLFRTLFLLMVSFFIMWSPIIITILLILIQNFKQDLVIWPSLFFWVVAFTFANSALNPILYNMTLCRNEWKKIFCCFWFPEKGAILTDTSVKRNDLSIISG
Test: Human GPR120 IP1 assay (inositol phosphate turnover)
Format: cell-based
Details: IP1 accumulation in CHO-K1 cells stably expressing the short form of human GPR120
Outline: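 Human receptor (short form) was stably expressed in CHO-K1 cells and rat receptor in HEK293 cells. Cells were exposed to compound for 60 min at 37° C in kit stimulation buffer. IP1 was quantified by HTRF 665/620 nm ratio against a standard curve, normalized to a reference compound, with EC50 from 4-parameter fits.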

Compound | EC50 [nM]
Oc1cc(-c2cnc(O[C@H]3C[C@](F)(c4cc(OC(F)(F)F)ccc4F)C3)cn2)on1 [Example 106, 5-[5-({cis-3-fluoro-3-[2-fluoro-5-(trifluoromethoxy)phenyl]cyclobutyl}oxy)pyrazin-2-yl]isoxazol-3-ol] | 91
Cc1cc(F)c([C@H]2C[C@@H](Oc3cnc(-c4cc(O)no4)cn3)C2)c(F)c1 [Example 51, ammonium 5-(5-{[cis-3-(2,6-difluoro-4-methyl-phenyl)-cyclobutyl]oxy}pyrazin-2-yl)isoxazol-3-olate] | 16
Oc1cc(-c2ccc(OC3CC(c4ccc(F)cc4)C3)nc2)on1 (centres unmarked) [Example 35, 5-(6-{[3-(4-fluorophenyl)cyclobutyl]oxy}pyridin-3-yl)isoxazol-3-ol trifluoroacetate] | 10
Oc1cc(-c2ccc(OC3CC(c4ccccc4)C3)nc2)on1 (centres unmarked) [Example 36, 5-{6-[(3-phenylcyclobutyl)oxy]pyridin-3-yl}isoxazol-3-ol trifluoroacetate] | 41
Oc1cc(-c2ccc(O[C@H]3C[C@@H](c4ccc(C(F)(F)F)cn4)C3)nc2)on1 [Example 24, 5-[6-({cis-3-[5-(trifloromethyl)pyridin-2-yl]cyclobutyl}oxy)pyridin-3-yl]isoxazol-3-ol] | 19
Oc1cc(-c2cnc(O[C@H]3C[C@@H](c4cc(F)c(OC(F)F)c(F)c4)C3)cn2)on1 [Example 53, ammonium 5-[5-({cis-3-[4-(difluoromethoxy)-3,5-di-fluorophenyl]cyclobutyl}oxy)pyrazin-2-yl]isoxazol-3-olate] | 14
Oc1cc(-c2cnc(O[C@H]3C[C@@H](c4cc(F)cc(OC(F)(F)F)c4)C3)cn2)on1 [Example 3, ammonium 5-[5-({cis-3-[3-fluoro-5-(trifluoromethoxy)-phenyl]cyclobutyl}oxy)pyrazin-2-1]isoxazol-3-olate] | 102
Oc1cc(-c2cnc(O[C@H]3C[C@@H](c4ccc5c(c4)OC(F)(F)O5)C3)cn2)on1 [Example 40, 5-(5-{[cis-3-(2,2-difluoro-1,3-benzodioxol-5-yl)cyclobutyl]oxy}pyrazin-2-yl)isoxazol-3-ol] | 16
Oc1cc(-c2cnc(O[C@H]3C[C@H](c4ccc(OC5CC5)cc4)C3)cn2)on1 [Example 60, 5-[5-({trans-3-[4-(cyclopropyloxyl)phenyl]cyclobutyl}oxy)pyrazin-2-yl]isoxazol-3-ol] | 13
CCOc1cc([C@]2(F)C[C@@H](Oc3ccc(-c4cc(O)no4)cn3)C2)ccn1 [Example 86, sodium 5-(6-{[cis-3-(2-ethoxypyridin-4-yl)-3-fluoro-cyclobutyl]oxy}pyridin-3-yl)isoxazol-3-olate] | 26
Oc1cc(-c2cnc(O[C@H]3C[C@@](F)(c4ccc(Cl)cc4)C3)cn2)on1 [Example 108, 5-(5-{[trans-3-(4-chlorophenyl)-3-fluorocyclobutyl]oxy}pyrazin-2-yl)isoxazol-3-ol] | 14
Oc1cc(-c2cnc(OC3CC(OCc4cc(C(F)(F)F)ccc4F)C3)cn2)on1 (mixture of isomers) [Example 79, 5-{5-[(cis-3-{[2-fluoro-5-(trifluoromethyl)benzyl]oxy}cyclobutyl)oxy]pyrazin-2-yl}isoxazol-3-ol (mixture of isomers predominantly cis)] | 13
Oc1cc(-c2cnc(O[C@H]3C[C@@H](Oc4csc(C(F)(F)F)c4)C3)cn2)on1 [Example 69, 5-{5-[(cis-3-{[5-(trifluoromethyl)thiophen-3-yl]oxy}cyclobutyl)oxy]pyrazin-2-yl}isoxazol-3-ol] | 25
Oc1cc(-c2cnc(O[C@H]3C[C@@](F)(c4nc5ccccc5s4)C3)cn2)on1 [Example 105, ammonium 5-(5-{[trans-3-(1,3-benzothiazol-2-yl)-3-fluorocyclobutyl]oxy}pyrazin-2-yl)isoxazol-3-olate] | 237
Oc1cc(-c2ccc(O[C@H]3C[C@@H](COc4ccccc4)C3)nc2)on1 [Example 82, 5-(3-hydroxyisoxazol-5-yl)-2-{[cis-3-(phenoxymethyl)cyclobutyl]oxy}pyridinium chloride] | 7.1
Oc1cc(-c2cnc(O[C@H]3C[C@@](F)(c4cc(OC(F)(F)F)ccc4F)C3)cn2)on1 (single isomer, unassigned) [Example 89, 5-[5-({trans-3-fluoro-3-[2-fluoro-5-(trifluoromethoxy)phenyl]-cyclobutyl}oxy)pyrazin-2-yl]isoxazol-3-ol] | 51
CC1(c2ccc(Cl)cc2)CC(Oc2cnc(-c3cc(O)no3)cn2)C1 (centres unmarked) [Example 93, 5-(5-{[3-(4-chlorophenyl)-3-methylcyclobutyl]oxy}pyrazin-2-yl)isoxazol-3-ol] | 215
N#Cc1cccc(COC2CC(Oc3ccc(-c4cc(O)no4)cn3)C2)c1F (mixture of isomers) [Example 77, ammonium 5-[6-({cis-3-[(3-cyano-2-fluorobenzyl)oxy]cyclobutyl}oxy)pyridin-3-yl]isoxazol-3-olate (mixture of isomers predominantly cis)] | 388
COc1cc(OC)cc([C@H]2C[C@@H](Oc3cnc(-c4cc(O)no4)cn3)C2)c1 [Example 54, ammonium 5-(5-{[cis-3-(3,5-dimethoxyphenyl)cyclobutyl]oxy}pyrazin-2-yl)isoxazol-3-olate] | 99
Oc1cc(-c2cnc(O[C@H]3C[C@H](c4ccnc(OC5CC5)c4)C3)cn2)on1 [Example 33, sodium 5-[5-({trans-3-[2-(cyclopropyloxy)pyridin-4-yl]cyclobutyl}oxy)pyrazin-2-yl]isoxazol-3-olate] | 320
Oc1cc(-c2ccc(OC3CCC(c4cccc(OC(F)(F)F)c4)C3)nc2)on1 (single isomer, unassigned) [Example 116, 5-(3-hydroxyisoxazol-5-yl)-2-({3-[3-(trifluoromethoxy)-phenyl]cyclopentyl}oxy)pyridinium trifluoroacetate] | 18
CC(C)Oc1cc([C@]2(F)C[C@@H](Oc3cnc(-c4cc(O)no4)cn3)C2)ccn1 [Example 100, sodium 5-[5-({cis-3-fluoro-3-[2-(propan-2-yloxy)pyridin-4-yl]cyclobutyl}oxy)pyrazin-2-yl]isoxazol-3-olate] | 153
Cc1ccc([C@H]2C[C@@H](Oc3cnc(-c4cc(O)no4)cn3)C2)c(F)c1 [Example 46, 5-(5-{[cis-3-(2-fluoro-4-methylphenyl)cyclobutyl]oxy}pyrazin-2-yl)isoxazol-3-ol] | 36
Cc1ccc([C@H]2C[C@@H](Oc3cnc(-c4cc(O)no4)cn3)C2)c(F)c1 [Example 48, 5-(5-{[cis-3-(2-fluoro-4-methylphenyl)cyclobutyl]oxy}pyrazin-2-yl)isoxazol-3-ol] | 24
Oc1cc(-c2ccc(OC3CC(OCc4ccc(F)cc4F)C3)nc2)on1 (mixture of isomers) [Example 72, 5-[6-({cis-3-[(2,4-difluorobenzyl)oxy]cyclobutyl}oxy)pyridin-3-yl]isoxazol-3-ol (mixture of isomers predominantly cis)] | 29
Oc1cc(-c2cnc(O[C@H]3C[C@@H](COc4ccccc4)C3)cn2)on1 [Example 83, sodium 5-(5-{[cis-3-(phenoxymethyl)cyclobutyl]oxy}pyrazin-2-yl)isoxazol-3-olate] | 17
